Data set [1] concerns MC38. The data set is described as follows: MC38 tumors treated intratumorally with TPI-1 and T cell activating agents. Type of data set: in vivo, C57Bl/6 mice. How it is done:
Inhibition of SHP-1 was tested in vivo for tumor therapies. […] Tumor growth was measured over time until the tumors reached 2.0 cm in diameters. […] Anti-PD-1 antibody was 205[…] 50 μg by intratumoral injection every 3 days. Anti-CD3 antibody and anti-CD28 antibody were each 205[…] 50 μg by intratumoral injection in a single dose.

Data set [2] concerns malignant melanoma and advanced malignancies. The following applies: cited from earlier work.
Data set [3] has as its system 4T1 breast cancer. Type of data set: in vivo. The following applies: lotion twice a day; anti-PD-1 100 μg i.p. every three days; all groups prophylactic anti-TNFα mAb.
Method: Efficacy of topical treatments against tumor growth and/or progression was tested using murine models of cutaneous/subcutaneous breast cancer. […] Palpable tumors were formed in 10-15 days and were traced by bioluminescence imaging. Tumor sizes were measured manually, and the volume was calculated by the equation=[length (mm)×width (mm)×width (mm)]/2. Once the total tumor volume reached ≥200 mm^3, treatments were started.
Treatment groups included: (i) Control treatment (ctl.), wherein mice received topical non-drug lotion (vehicle) only; (ii) αPD-1 treatment, wherein mice received topical non-drug lotion (vehicle) treatment along with 100 μg of anti-PD-1 monoclonal antibody once every three days through intraperitoneal injection; (iii) Topical treatment with TLR agonists only (i.e. Condition A), wherein mice received aTLR (Resiquimod (R848) and polyI:C) prepared in Johnson's lotion, each at 100 μg/ml in a final volume of 100-200 μL lotion: (iv) Topical treatment with SHP-1 inhibitors only (i.e. Condition B), wherein mice received deuterated TPI-1 (dTPI-1) at 100 μg/ml in a final volume of 100-200 μL lotion; (v) Topical treatment with Conditions A+B only in a final volume of 100-200 μL lotion; and (vi) Topical treatment with Conditions A+B in a final volume of 100-200 μL lotion and systemic αPD-1 treatment. […]

The values below come from patent US20260273047A1, “COMPOSITIONS AND METHODS FOR AMELIORATING ADVERSE EFFECTS OF THERAPIES” (MDX Management LLC, priority 2023, published 2026).

“Also recorded” adds a separate entry of the source.

With `O=C1C=CC(=O)C(c2cc(Cl)ccc2Cl)=C1` [TPI-1, 2-(2,5-dichlorophenyl)benzoquinone], the “effect of adding TPI-1 to αPD-1, IL-2, anti-CD3/CD28 or αPD-1+IL-2” value in data set [1] (TPI-1 1 mg/kg every 2 days, 1 mg/kg) is on record as “enabled the intratumoral injection of αPD-1, IL-2, or anti-CD3/CD28 to achieve strong anti-tumor effects; also recorded: instantly overcame treatment resistance”. Moreover, the “effect on established tumors, such as MC38, KPC, or LLC” value in data set [1] (agent alone) was “only minor effects”. The “MC38 tumor growth / resistance” value in data set [1] (intratumoral, agent without SHP-1 inhibitor, or TPI-1 alone (1 mg/kg every 2 days)) is “did not attenuate tumor growth; also recorded: did not stop tumor progression”.
`O.O.O.O.O.O.O.O.O.O=C([O-])[C@@H]1[O][Sb]2([O-])([O][Sb]34([OH])[O][C@H]([C@H](O)CO)[C@H]([O]3)[C@H](C(=O)[O-])[O]4)[O][C@H]([C@H](O)CO)[C@@H]1[O]2.[Na+].[Na+].[Na+]` [SSG, sodium stibogluconate]: in data set [2] (thrombocytopenia, elevated serum lipase, fatigue, fever, chills, anemia, hypokalemia, pancreatitis, skin rash), the “most common toxic side-effects, frequency” value is reported as “up to 68 % of patients”. The “effect against tumor development” value in data set [2] (with interferons, followed or not by chemotherapy) is given as “no effect was seen against tumor development”.
As to `[2H]C1=C([2H])C(=O)C(c2c([2H])c(Cl)c([2H])c([2H])c2Cl)=C([2H])C1=O` [dTPI-1], the “4T1 tumor growth / progression” value in data set [3] was “only slightly delayed tumor progression”.
